# Data reported in EP0339176A1, “Suppository containing a non-steroidal anti-inflammatory medicament” (AMERICAN CYANAMID COMPANY, priority 1988, dated 1989).
# Assays:
# [1] = Clinical bioavailability study of Fenbufen suppositories; type: in vivo; settings: rectal
# Method: Rectal administration of non-steroidal anti-inflammatory drugs can be clinically advantageous in some circumstances, in that it can prolong the effect of the drug. For example, when certain non-steroidal drugs are given rectally to a patient immediately prior to retiring for the night, sufficient blood levels of the drug are still available some 6-7 hours later to prevent morning stiffness. However, in the case of Fenbufen, the high level required for the nocturnal dose (450-600 mg) makes it difficult to deliver this drug successfully from the rectum. […] Accordingly, Fenbufen-containing suppository formulations for rectal administration have not been available, which is a disadvantage when Fenbufen would otherwise be the drug of choice for the patient.
# [2] = Solubility of BPAA salts in water relative to the free acid; settings: salt versus free acid
Structure (SMILES),bioavailability of the active ingredient from suppositories [1],"increase of the solubility of (1,1′-biphenyl)-4-acetic acid in water [2]"
"O=C(O)CCC(=O)c1ccc(-c2ccccc2)cc1 [Fenbufen, 4-(biphenyl-4-yl)-4-oxo-butyric acid]",low bioavailability,–
O=C(O)Cc1ccc(-c2ccccc2)cc1 [sodium],–,8-9 fold
